In patent EP0197664A2, “2-Aminopyrimidinone derivatives” (SMITH KLINE & FRENCH LABORATORIES LIMITED, priority 1985, dated 1986):

How the values were obtained:
anaesthetised cats = assay: Cardiac stimulant activity in vivo (anaesthetised cats, left ventricular dp/dt max); conditions: Felis catus, read-out: ED50 (dose to increase left ventricular dp/dt max by 50%); anaesthetised cats pretreated with pempidine and propranolol, intravenous
Source text: The dose to increase left ventricular dp/dt max by 50% is given as the EDso.

right ventricle strips = assay: Cardiac stimulant activity in vitro (force of contraction of electrically stimulated ventricular strips); assay type: cell-based, Guinea pigs; conditions: Cavia porcellus, read-out: EC50 (50% increase in the force of contraction of the ventricular strips); guinea pig right ventricular strips, 1.0 Hz stimulation, Krebs Henseleit solution at 37°C, cumulative concentration response
Description: The compounds of formula (I) and their pharmaceutically acceptable salts are tested for cardiac stimulant activity following a procedure based on that of S.C. […] Guinea pigs (500-700 g) of either sex are sacrificed and the hearts are quickly removed and transferred to a dissecting dish containing oxygenated bathing fluid. While in the bathing medium, the right ventricle is cut into two strips. The strips are each suspended in a 50 ml bath containing Krebs Henseleit solution at 37°C, and the bath is bubbled with 95% oxygen and 5% carbon dioxide. The ventricular strips are electrically stimulated at a frequency of 1.0 Hz, at double the threshold voltage. A resting tension of 1.0 g is applied to the strips and the tension is kept constant by readjustment during an equilibration period of 60 minutes. The bathing fluid is frequently changed during this period. When a steady base line is obtained, a compound under test is added to the bathing fluid and a cumulative concentration response curve is plotted.

EC50 (right ventricle strips) [µM] | Compound | ED50 (anaesthetised cats) [µmol/kg]
 | CC1CC(=O)NN=C1c1ccc(Nc2nc(=O)c3ccccc3[nH]2)cc1 (centres unmarked) [Example 4, 6-[4-(1,4-Dihydro-4-oxo-2-quinazolinyiamino)-phenyl]-5-methyl-4,5-dihydro-3(2H)-pyridazinone] | 0.41
15 | Nc1cc(-c2ccncc2)c[nH]c1=O [Amrinone, reference compound] | 5.6
 | CC1CC(=O)NN=C1c1ccc(Nc2nc(=O)cc[nH]2)cc1 (centres unmarked) [Example 1, 6-[4-(1,4-Dihydro-4-oxo-2-pyrimidinylamino)phenyl]-5-methyl-4,5-dihydro-3(2H)-pyridazinone] | 0.06
 | Cc1c[nH]c(Nc2ccc(C3=NNC(=O)CC3C)cc2)nc1=O (centres unmarked) [Example 3, 6-[4-(1,4-Dihydro-5-methyl-4-oxo-2-pyrimidinylamino)phenyl]-5-methyl-4,5-dihydro-3-(2H)-pyridazinone] | 3.03
